Data published in ChEMBL document CHEMBL3351383, “Combination of chiral linkers with thiophenecarboximidamide heads to improve the selectivity of inhibitors of neuronal nitric oxide synthase” (Bioorg Med Chem Lett, 2014).

Assays:
[1] = Selectivity index, ratio of Ki for mouse macrophage iNOS to KI for rat nNOS
[2] = Selectivity index, ratio of Ki for bovine eNOS to KI for rat nNOS

Row | Ratio Ki [1] | Ratio Ki [2] | Structure (SMILES)
1 | 92 | 18 | N=C(Nc1cccc(OC[C@@H]2C[C@@H](OCc3cccc(F)c3)CN2)c1)c1cccs1
2 | 90 | 86 | N=C(Nc1cccc(O[C@H]2CN[C@H](COCc3cccc(F)c3)C2)c1)c1cccs1
3 | 163 | 142 | N=C(Nc1ccc(OC[C@@H]2C[C@@H](Oc3cccc(NC(=N)c4cccs4)c3)CN2)cc1)c1cccs1
